This passage reports EC50 results from US6972319B1, “Pituitary adenylate cyclase activating peptide (PACAP)receptor 3 (R3) agonists and their pharmacological methods of use” (priority 1999, dated 2005).

No end group written: not given here.

For the test, the target named is T1, PACAP-R2 (Homo sapiens, UniProt P32241).
T1 construct: expressed in transfected cells; host or cells: CHO cells
T1 sequence (P32241 31-457): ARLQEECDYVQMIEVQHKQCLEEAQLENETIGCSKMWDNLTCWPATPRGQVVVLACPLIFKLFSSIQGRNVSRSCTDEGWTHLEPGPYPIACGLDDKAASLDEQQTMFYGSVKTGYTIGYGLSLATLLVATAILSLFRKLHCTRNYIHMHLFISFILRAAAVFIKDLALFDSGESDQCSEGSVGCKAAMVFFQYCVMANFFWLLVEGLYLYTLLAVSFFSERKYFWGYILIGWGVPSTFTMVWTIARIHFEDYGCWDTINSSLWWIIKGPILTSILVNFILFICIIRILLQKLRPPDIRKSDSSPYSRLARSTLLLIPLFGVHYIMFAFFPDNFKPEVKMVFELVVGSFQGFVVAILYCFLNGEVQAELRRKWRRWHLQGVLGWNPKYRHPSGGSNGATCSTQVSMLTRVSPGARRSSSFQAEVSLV
Nature of the test: Cyclic AMP SPA on CHO cells transfected with PACAP-R2. In kind it is cell-based. The following applies: cAMP SPA, concentration at which 50% of maximum PACAP27 activity is achieved, NA = no detectable activities, read-out: R2 EC50. How it is done:
CHO cells expressing the PACAP R3 were plated in 96-well plates (Costar) at 8×10^4 cell/well and grown at 37 C. for 24 hours in α MEM+nucleosides+glutamine (Giobco BRL), 10% FBS, 100 μg/ml Pen/Strep, 0.3 mg/ml glutamine, 1 mM HEPES, 0.5 mg/ml Geneticin (Gibco BRL). The media was removed and the plates were washed with PBS. The cells were incubated with a peptide, in Hepes-PBS-BSA with 0.4 mg/mlSoybean Trypsin Inhibitor, 0.5 mg/ml Bacitracin, 100 uM IBMX, for 15 min at 37 C. Cyclic AMP in the cell extracts was quantitated using the cAMP SPA direct screening assay system (Amersham Pharmacia Biotech Inc, Piscataway, N.J.,). The peptides shown in Table 3 were assayed for cAMP activity.
EC50 is defined as the concentration of the polypeptide at which 50% of maximum PACAP27 activity is achieved. “NA” denotes no detectable activities. “R3 Selectivity” is derived from the ratio of EC50 at R2 versus EC50 at R3.
Regarding `CC[C@H](C)[C@H](NC(=O)[C@H](CO)NC(=O)[C@H](CC(N)=O)NC(=O)[C@H](CC(C)C)NC(=O)[C@H](Cc1ccc(O)cc1)NC(=O)[C@H](CCCCN)NC(=O)[C@H](CCCCN)NC(=O)[C@H](C)NC(=O)[C@H](C)NC(=O)[C@H](CCSC)NC(=O)[C@H](CCC(N)=O)NC(=O)[C@H](CCCCN)NC(=O)[C@H](CCCNC(=N)N)NC(=O)[C@H](CC(C)C)NC(=O)[C@H](CCCNC(=N)N)NC(=O)[C@@H](NC(=O)[C@H](Cc1ccc(O)cc1)NC(=O)[C@H](CC(N)=O)NC(=O)[C@H](CC(=O)O)NC(=O)[C@@H](NC(=O)[C@H](Cc1ccccc1)NC(=O)[C@@H](NC(=O)[C@H](C)NC(=O)[C@H](CC(=O)O)NC(=O)[C@H](CO)NC(=O)[C@@H](N)Cc1c[nH]cn1)C(C)C)[C@@H](C)O)[C@@H](C)O)C(=O)N[C@@H](CCCCN)C(=O)N[C@@H](CC(N)=O)C(=O)N[C@@H](CCCCN)C(=O)N[C@@H](CCC(N)=O)C(=O)O` [Peptide R3P166], the concentration for a half-maximal effect (EC50) (in general, the midpoint of the concentration-response curve) turned out to be 50 nM.
In the case of “HSDAVFTDNYTRLRKQLAAKKYLNDIKNGGT [Peptide R3P24]” it was 45 nM; in that of `CC[C@H](C)[C@H](NC(=O)[C@H](CO)NC(=O)[C@H](CC(N)=O)NC(=O)[C@H](CC(C)C)NC(=O)[C@H](Cc1ccc(O)cc1)NC(=O)[C@H](CCCCN)NC(=O)[C@H](CCCCN)NC(=O)[C@H](C)NC(=O)[C@H](C)NC(=O)[C@H](CCSC)NC(=O)[C@H](CCC(N)=O)NC(=O)[C@H](CCCCN)NC(=O)[C@H](CCCNC(=N)N)NC(=O)[C@H](CC(C)C)NC(=O)[C@H](CCCNC(=N)N)NC(=O)[C@@H](NC(=O)[C@H](Cc1ccc(O)cc1)NC(=O)[C@H](CC(N)=O)NC(=O)[C@H](CC(=O)O)NC(=O)[C@@H](NC(=O)[C@H](Cc1ccccc1)NC(=O)[C@@H](NC(=O)[C@H](C)NC(=O)[C@H](CC(=O)O)NC(=O)[C@H](CO)NC(=O)[C@@H](N)Cc1c[nH]cn1)C(C)C)[C@@H](C)O)[C@@H](C)O)C(=O)N[C@H](C(=O)N[C@@H](CC(N)=O)C(=O)N[C@@H](CCCCN)C(=O)N[C@@H](CCCNC(=N)N)C(=O)O)[C@@H](C)CC` [Peptide R3P123], 5 nM.
In the case of `CC[C@H](C)[C@H](NC(=O)[C@H](CO)NC(=O)[C@H](CC(N)=O)NC(=O)[C@H](CC(C)C)NC(=O)[C@H](Cc1ccc(O)cc1)NC(=O)[C@H](CCCCN)NC(=O)[C@H](CCCCN)NC(=O)[C@H](CCSC)NC(=O)[C@H](C)NC(=O)[C@H](CCSC)NC(=O)[C@H](CCC(N)=O)NC(=O)[C@H](CCCCN)NC(=O)[C@H](CCCNC(=N)N)NC(=O)[C@H](CC(C)C)NC(=O)[C@H](CCCNC(=N)N)NC(=O)[C@@H](NC(=O)[C@H](Cc1ccc(O)cc1)NC(=O)[C@H](CC(N)=O)NC(=O)[C@H](CC(=O)O)NC(=O)[C@@H](NC(=O)[C@H](Cc1ccccc1)NC(=O)[C@@H](NC(=O)[C@H](C)NC(=O)[C@H](CC(=O)O)NC(=O)[C@H](CO)NC(=O)[C@@H](N)Cc1c[nH]cn1)C(C)C)[C@@H](C)O)[C@@H](C)O)C(=O)N[C@@H](CCCCN)C(=O)N[C@@H](CC(N)=O)C(=O)N[C@@H](CCCCN)C(=O)N[C@@H](CCCNC(=N)N)C(=O)O` [Peptide R3P106] it was 2 nM.
As for `CC[C@H](C)[C@H](NC(=O)[C@H](CO)NC(=O)[C@H](CC(N)=O)NC(=O)[C@H](CC(C)C)NC(=O)[C@H](Cc1ccc(O)cc1)NC(=O)[C@H](CCCCN)NC(=O)[C@H](CCCCN)NC(=O)[C@H](C)NC(=O)[C@H](C)NC(=O)[C@H](CCSC)NC(=O)[C@H](CCC(N)=O)NC(=O)[C@H](CCCCN)NC(=O)[C@H](CCCNC(=N)N)NC(=O)[C@H](CC(C)C)NC(=O)[C@H](CCCNC(=N)N)NC(=O)[C@@H](NC(=O)[C@H](Cc1ccc(O)cc1)NC(=O)[C@H](CC(N)=O)NC(=O)[C@H](CC(=O)O)NC(=O)[C@@H](NC(=O)[C@H](Cc1ccccc1)NC(=O)[C@@H](NC(=O)[C@H](C)NC(=O)[C@H](CC(=O)O)NC(=O)[C@H](CO)NC(=O)[C@@H](N)Cc1c[nH]cn1)C(C)C)[C@@H](C)O)[C@@H](C)O)C(=O)N[C@@H](CCCCN)C(=O)N[C@@H](CC(N)=O)C(=O)N[C@@H](CCCCN)C(=O)N[C@@H](Cc1ccc(O)cc1)C(=O)O` [Peptide R3P171], the EC50 was 80 nM.
In the case of `CC[C@H](C)[C@H](NC(=O)[C@H](CO)NC(=O)[C@H](CC(N)=O)NC(=O)[C@H](CC(C)C)NC(=O)[C@H](Cc1ccc(O)cc1)NC(=O)[C@H](CCCCN)NC(=O)[C@H](CCCCN)NC(=O)[C@H](C)NC(=O)[C@H](C)NC(=O)[C@H](CCSC)NC(=O)[C@H](CCC(N)=O)NC(=O)[C@H](CCCCN)NC(=O)[C@H](CCCNC(=N)N)NC(=O)[C@H](CC(C)C)NC(=O)[C@H](CCCNC(=N)N)NC(=O)[C@@H](NC(=O)[C@H](Cc1ccc(O)cc1)NC(=O)[C@H](CC(N)=O)NC(=O)[C@H](CC(=O)O)NC(=O)[C@@H](NC(=O)[C@H](Cc1ccccc1)NC(=O)[C@@H](NC(=O)[C@H](C)NC(=O)[C@H](CC(=O)O)NC(=O)[C@H](CO)NC(=O)[C@@H](N)Cc1c[nH]cn1)C(C)C)[C@@H](C)O)[C@@H](C)O)C(=O)N[C@@H](CCCCN)C(=O)N[C@@H](CC(N)=O)C(=O)N[C@@H](CCCCN)C(=O)N[C@@H](CO)C(=O)O` [Peptide R3P167] it was 300 nM; in that of `CC[C@H](C)[C@H](NC(=O)[C@H](CO)NC(=O)[C@H](CC(N)=O)NC(=O)[C@H](CC(C)C)NC(=O)[C@H](Cc1ccc(O)cc1)NC(=O)[C@H](CCCCN)NC(=O)[C@H](CCCCN)NC(=O)[C@H](C)NC(=O)[C@H](C)NC(=O)[C@H](CCSC)NC(=O)[C@H](CCC(N)=O)NC(=O)[C@H](CCCCN)NC(=O)[C@H](CCCNC(=N)N)NC(=O)[C@H](CC(C)C)NC(=O)[C@H](CCCNC(=N)N)NC(=O)[C@@H](NC(=O)[C@H](Cc1ccc(O)cc1)NC(=O)[C@H](CC(N)=O)NC(=O)[C@H](CC(=O)O)NC(=O)[C@@H](NC(=O)[C@H](Cc1ccccc1)NC(=O)[C@@H](NC(=O)[C@H](C)NC(=O)[C@H](CC(=O)O)NC(=O)[C@H](CO)NC(=O)[C@@H](N)Cc1c[nH]cn1)C(C)C)[C@@H](C)O)[C@@H](C)O)C(=O)N[C@@H](CCSC)C(=O)N[C@@H](CC(N)=O)C(=O)N[C@@H](CCCCN)C(=O)N[C@@H](CCCNC(=N)N)C(=O)O` [Peptide R3P124], 3 nM.
Turning to `CC[C@H](C)[C@H](NC(=O)[C@H](CO)NC(=O)[C@H](CC(N)=O)NC(=O)[C@H](CC(C)C)NC(=O)[C@H](Cc1ccc(O)cc1)NC(=O)[C@H](CCCCN)NC(=O)[C@H](CCCCN)NC(=O)[C@H](C)NC(=O)[C@H](C)NC(=O)[C@H](CCSC)NC(=O)[C@H](CCC(N)=O)NC(=O)[C@H](CCCCN)NC(=O)[C@H](CCCNC(=N)N)NC(=O)[C@H](CC(C)C)NC(=O)[C@H](CCCNC(=N)N)NC(=O)[C@@H](NC(=O)[C@H](Cc1ccc(O)cc1)NC(=O)[C@H](CC(N)=O)NC(=O)[C@H](CC(=O)O)NC(=O)[C@@H](NC(=O)[C@H](Cc1ccccc1)NC(=O)[C@@H](NC(=O)[C@H](C)NC(=O)[C@H](CC(=O)O)NC(=O)[C@H](CO)NC(=O)[C@@H](N)Cc1c[nH]cn1)C(C)C)[C@@H](C)O)[C@@H](C)O)C(=O)N[C@@H](CCCCN)C(=O)N[C@@H](CC(N)=O)C(=O)N[C@@H](CCCCN)C(=O)N[C@@H](Cc1c[nH]c2ccccc12)C(=O)O` [Peptide R3P170], the EC50 stood at 20 nM.
